Series [1] deals with T1, human calcitonin receptor (Homo sapiens, UniProt P30988).
T1 construct: expressed in transfected cells
T1 sequence (P30988 25-474): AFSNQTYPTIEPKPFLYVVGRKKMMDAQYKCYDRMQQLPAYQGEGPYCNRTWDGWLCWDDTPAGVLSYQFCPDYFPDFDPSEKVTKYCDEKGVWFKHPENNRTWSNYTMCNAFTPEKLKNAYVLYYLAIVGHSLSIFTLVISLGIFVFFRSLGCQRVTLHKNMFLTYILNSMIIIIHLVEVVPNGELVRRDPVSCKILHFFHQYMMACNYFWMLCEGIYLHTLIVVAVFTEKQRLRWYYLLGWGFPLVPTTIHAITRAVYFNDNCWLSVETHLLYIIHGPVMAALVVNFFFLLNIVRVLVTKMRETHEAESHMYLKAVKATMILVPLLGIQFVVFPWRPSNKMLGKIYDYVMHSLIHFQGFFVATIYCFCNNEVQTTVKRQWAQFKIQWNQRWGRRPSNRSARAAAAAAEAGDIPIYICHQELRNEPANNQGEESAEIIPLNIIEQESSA
The series can be described thus: ASSAY (VII) binding to the human calcitonin receptor (SPA, 125I-Calcitonin).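 Note: cell membranes (35 ng/µL) combined with SPA beads in 40 µL of pH 7.4 Hepes buffer, 384-well format, signal counted on a TopCounter instrument.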 The conditions noted are these: read-out: hCTR bind IC50.

For series [2], the target named is T2, rat amylin receptor (rat calcitonin receptor + rat RAMP 3) (Rattus norvegicus, UniProt P32214+Q9JJ73).
T2 construct: expressed in transfected cells; host or cells: BHK tk'ts 13 (transient, FuGENE 6), membranes
T2 sequence (P32214 25-479 isoform P32214-2 limits assumed): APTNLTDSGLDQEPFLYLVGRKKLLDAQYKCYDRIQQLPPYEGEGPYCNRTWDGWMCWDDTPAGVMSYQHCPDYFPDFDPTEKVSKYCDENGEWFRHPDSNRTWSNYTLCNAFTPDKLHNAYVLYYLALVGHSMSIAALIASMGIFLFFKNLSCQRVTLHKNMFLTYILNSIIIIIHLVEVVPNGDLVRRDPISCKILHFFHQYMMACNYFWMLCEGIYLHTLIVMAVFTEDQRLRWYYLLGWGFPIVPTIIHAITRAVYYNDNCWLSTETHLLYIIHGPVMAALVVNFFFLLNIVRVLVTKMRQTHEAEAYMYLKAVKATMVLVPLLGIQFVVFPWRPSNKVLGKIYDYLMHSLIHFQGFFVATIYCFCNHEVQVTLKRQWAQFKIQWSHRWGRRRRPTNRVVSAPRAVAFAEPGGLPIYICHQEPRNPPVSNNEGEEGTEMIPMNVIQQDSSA
T2 sequence (Q9JJ73 23-147 partner): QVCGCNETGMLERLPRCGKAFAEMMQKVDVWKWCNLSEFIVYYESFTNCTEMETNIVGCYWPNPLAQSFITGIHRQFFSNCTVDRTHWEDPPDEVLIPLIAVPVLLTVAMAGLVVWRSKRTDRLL
Description: ASSAY (VI) binding to the rat amylin receptor. To be noted: for IC50: binding to rat amylin receptor, read-out: rAmylin-R bind IC50. The essentials: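 The cell-membrane assay assessed binding at the rat amylin receptor. BHK tk′ts 13 cells were transfected transiently with rat calcitonin receptor, with FuGENE® 6 (Roche) as the transfection reagent, used per the manufacturer's recommendations. Approximately 48 hours after transfection the cells were harvested, and membranes were prepared for measuring binding.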

The nature of series [3]: ASSAY (III) ThT fibrillation assay for physical stability. The series is classed as physicochemical. The essentials: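 Physical stability scored by ThT fluorescence (444 nm excitation, 485 nm emission) tracked every 20 min during 37 °C incubation with 960 rpm shaking, ThT at 1 μM final. Values are replicate means with SD at chosen times; HPLC against pramlintide standard gives initial and post-assay soluble concentrations.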

For a further series, the target named is T3, rat calcitonin receptor (Rattus norvegicus, UniProt P32214).
T3 construct: expressed in transfected cells; host or cells: BHK tk'ts 13 (transient, FuGENE 6), membranes
T3 sequence (P32214 25-479 isoform P32214-2 limits assumed): T2 sequence (P32214 25-479 isoform P32214-2 limits assumed)
Description: ASSAY (VIII) binding to the rat calcitonin receptor. To be noted: Table 7, read-out: rCTR bind IC50. In outline:
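Cell membranes for binding came from BHK tk′ts 13 cells harvested approximately 48 hours after transient transfection with the rat receptor.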

The mark [4] stands for this setting: Table 7, rat binding selectivity, rCTR IC50 / rAmylin-R IC50.
Setting [5] is: Table 7a (preferred compounds), rat binding selectivity, rCTR IC50 / rAmylin-R IC50.

The source of these data is patent US9023789B2, “Amylin analogs and pharmaceutical compositions thereof” (Novo Nordisk A/S, priority 2012, dated 2015).

In general, IC50 refers to the point on the concentration scale where inhibition reaches its midpoint.

Structures are written as SMILES. Numbered stars: 1 amine (or outer) side, 2 acyl side, 3 side chain; on linkers, the order of the positions; unused ones are H or OH. Bridge positions count the residues as written; N and C are the ends. Side chains are listed from the residue outwards. Peptide text beside a SMILES is read from it. * marks the point of attachment. C20 diacid = O=C(O)CCCCCCCCCCCCCCCCCCC(=O)*; γGlu = O=C(O)[C@H](CCC(=O)[*:2])N[*:1]; AEEA = NCCOCCOCC(=O)O

Regarding `CC[C@H](C)[C@H](NC(=O)[C@H](C)NC(=O)CNC(=O)[C@H](Cc1ccccc1)NC(=O)[C@H](CC(N)=O)NC(=O)[C@H](CCCCNC(=O)CC[C@H](NC(=O)CC[C@H](NC(=O)CCCCCCCCCCCCCCCCCCC(=O)O)C(=O)O)C(=O)O)NC(=O)[C@H](CO)NC(=O)[C@H](CO)NC(=O)[C@H](Cc1c[nH]cn1)NC(=O)[C@H](CCCNC(=N)N)NC(=O)[C@H](CC(C)C)NC(=O)[C@H](Cc1ccccc1)NC(=O)[C@H](CC(=O)O)NC(=O)[C@H](C)NC(=O)[C@H](CC(C)C)NC(=O)[C@H](CCCNC(=N)N)NC(=O)[C@H](CCC(N)=O)NC(=O)[C@@H](NC(=O)[C@H](C)NC(=O)[C@@H]1CSSC[C@H](NC(=O)[C@@H](N)CCCCN)C(=O)N[C@@H](CC(N)=O)C(=O)N[C@@H]([C@@H](C)O)C(=O)N[C@@H](C)C(=O)N[C@@H]([C@@H](C)O)C(=O)N1)[C@@H](C)O)C(=O)N1CCC[C@H]1C(=O)N[C@@H](CO)C(=O)N[C@@H](CO)C(=O)N[C@H](C(=O)N[C@@H](CC(N)=O)C(=O)N[C@H](C(=O)NCC(=O)N[C@@H](CO)C(=O)N[C@@H](CC(=O)O)C(=O)N[C@H](C(=O)N[C@@H](Cc1ccc(O)cc1)C(N)=O)[C@@H](C)O)C(C)C)[C@@H](C)O` [Example 59] (H-KCNTATCATQRLADFLRHSSK([γGlu-γGlu-C20 diacid])NFGAIPSSTNVGSDTY-NH2; disulfide 2-7; N-terminus assumed), the IC50 in series [1] came out at 5.14 nM; in series [2] (Table 7), 0.659 nM; on rat calcitonin receptor, 18.8 nM. Moreover, the “Ratio rCT/rAmylin binding” value in series [2] (setting [4]) and in series [2] (setting [5]) was 28.5 in each case. In series [3], the “ThT pH 4.0 lag time (h)” value was 23 h.

Consider `CC[C@H](C)[C@H](NC(=O)[C@H](C)NC(=O)CNC(=O)[C@H](Cc1ccccc1)NC(=O)[C@H](CC(N)=O)NC(=O)[C@@H]1CCCN1C(=O)[C@H](CO)NC(=O)[C@H](CO)NC(=O)[C@H](Cc1c[nH]cn1)NC(=O)[C@H](CCCNC(=N)N)NC(=O)[C@H](CC(C)C)NC(=O)[C@H](Cc1ccccc1)NC(=O)[C@H](C)NC(=O)[C@H](C)NC(=O)[C@H](CC(C)C)NC(=O)[C@H](CCCNC(=N)N)NC(=O)[C@H](CCC(N)=O)NC(=O)[C@@H](NC(=O)[C@H](C)NC(=O)[C@@H]1CSSC[C@H](NC(=O)[C@@H](N)CCCCNC(=O)COCCOCCNC(=O)CC[C@H](NC(=O)CCCCCCCCCCCCCCCCCCC(=O)O)C(=O)O)C(=O)N[C@@H](CC(N)=O)C(=O)N[C@@H]([C@@H](C)O)C(=O)N[C@@H](C)C(=O)N[C@@H]([C@@H](C)O)C(=O)N1)[C@@H](C)O)C(=O)N1CCC[C@H]1C(=O)N[C@@H](CO)C(=O)N[C@@H](CO)C(=O)N[C@H](C(=O)N1CCC[C@H]1C(=O)N[C@H](C(=O)NCC(=O)N[C@@H](CO)C(=O)N[C@@H](CC(N)=O)C(=O)N[C@H](C(=O)N[C@@H](Cc1ccc(O)cc1)C(N)=O)[C@@H](C)O)C(C)C)[C@@H](C)O` [Example 72] (H-K([AEEA-γGlu-C20 diacid])CNTATCATQRLAAFLRHSSPNFGAIPSSTPVGSNTY-NH2; disulfide 2-7 (inferred); N-terminus assumed), for which the IC50 in series [1] amounted to 42.4 nM; in series [2] (Table 7), 0.851 nM; on rat calcitonin receptor, 221 nM. Also, the “Ratio rCT/rAmylin binding” value in series [2] (setting [4]), in series [2] (setting [5]) and in series [2] (ratio of rCTR bind IC50 to rAmylin-R bind IC50) was 259.3 throughout. In addition, the “ThT pH 4.0 lag time (h)” value in series [3] is on record as 13 h.
